The values that follow come from US11325907B2, “Crystal form of 1H-imidazo[4,5-b]pyridine-2(3H)-one compound and preparation process therefor” (MEDSHINE DISCOVERY INC., priority 2018, dated 2022).

Usually inhibition stands for the drop in the measured response relative to a control, in per cent. Broadly, the IC50 is the concentration needed to halve the response being measured.

For test [1], the system named is collagen-induced arthritis in mice. Briefly: In vivo CIA model (collagen-induced arthritis). Particulars: for Total pathological score (both hind limbs): day 38, Mean±SEM. Set-up: species or system DBA/1 mice; Average clinical symptom score: dose or concentration left out as unconfirmed; key to Total pathological score (both hind limbs): each of 4 joint-damage aspects scored 0-4, summed over both hind limbs. The text has this:
A series of symptoms similar to human psoriatic arthritis, such as redness and swelling of the joint, articular cartilage damage, and capsula articularis damage are elicited in the model by injection of type II collagen to activate reactivity of B cells, T cell on bone collagen, and the activated B cells and T cells enter the joints to cause joint inflammation. During pre-clinical evaluation of candidate compounds for treating psoriatic arthritis, collagen-induced arthritis in mice is often used to evaluate the effectiveness.
The purpose of this experiment was to study the therapeutic effect of Compound 1 on collagen-induced arthritis in mice, so as to provide preclinical pharmacodynamic relevant information for subsequent clinical studies.
1. Type II collagen/complete Freund's adjuvant immunization
Preparation of acetic acid: Diluting acetic acid to 100 mM, which was filtered with 0.22 um filter membrane and stored at 4° C.
Bovine type II collagen solution: Dissolving bovine type II collagen (CII) in acetic acid solution, which was stored at 4° C. overnight.
Preparation of emulsion: Mixing the CII solution stored overnight with equal volume of the complete Freund's adjuvant and homogenize the mixture with high-speed homogenizer until the solution formed a stable emulsion.
Preparation of lipopolysaccharide (LPS): Weighing LPS, adding normal saline, and mixing until a stable solution with concentration of […] was formed.
The mice were randomly assigned to different treatment groups. The day of the first immunization was recorded as day 0, and the subsequent days were marked sequentially.
After DBA/1 mice were anesthetized with isoflurane, the prepared collagen emulsion was injected subcutaneously in the tail.
On day 23, 100 μl of LPS solution was injected intraperitoneally.
On day 27, when the average clinical score reached about 1, 60 mice with moderate onset were selected, and they were re-randomized according to body weight and score, with 10 mice in each group.
Dexamethasone as positive control drug in 0.3 mg/kg dose group is commonly used in the CIA model. In addition, the relevant dose design of Compound 1 and the control compound Apremilast were determined according to the results of earlier preliminary experiments. Group 1 was normal mice without any treatment; Group 2 was vehicle control group and was administered vehicle; Group 3 was administered dexamethasone at a dose of 0.3 mg/kg; Group 4 was administered Apremilast at a dose of 5 mg/kg; Group 5, Group 6, and Group 7 were administered Compound 1 with doses of 0.3, 1, and 3 mg/kg, respectively. Administration was given once a day for 11 days in total. The volume of intragastric administration was 10 ml/kg.
Clinical observation: From 7 days before immunization to 23 days after immunization, the basic health status and body weight changes of DBA/1 mice were observed daily (recorded once a week). After the 23rd day, the health status, morbidity and body weight change of the mice were observed daily (recorded at least three times a week) until the end of the experiment.
Clinical score: After LPS injection, the morbidities of mice were observed every day. After the onset of disease in mice (clinical symptoms of arthritis), they were scored according to severity of conditions (redness and swelling, joint deformation) according to 0-4 point standard, with a maximum score of 4 for each limb, and a maximum score of 16 for each animal. At least three times of scoring were performed a week.
Pathology: On day 38, the mouse was euthanized. The two posterior limbs of the mouse were taken, soaked with 10% formalin solution, decalcified with formic acid solution, embedded with paraffin, sectioned, stained with hematoxylin-eosin (HE), and observed with photomicrography. The degree of joint damage was evaluated in four aspects: inflammatory cell infiltration, pannus formation, cartilage injury and bone resorption, and scored according to 0-4 score standard. […]

In test [2] the test system is TNFα production in human peripheral blood mononuclear cells (hPBMC). In words: Inhibition of LPS-induced TNFα production in hPBMC. Type of test: cell-based. The procedure:
The inhibitory activity of Compound 1 of lipopolysaccharide (LPS)-induced TNFα production in human peripheral blood mononuclear cells.
• 1. Collecting normal human whole blood, which was anticoagulated with EDTA-K2 anticoagulation tube; • 2. Separating PBMC with Ficoll density gradient centrifugation, counting and adjusting the cell concentration to 2×10^6/mL; • 3. To U-bottom 96-well plate were added 2×10^5 cells/well, LPS 1 ng/mL was added, various concentrations of compound at 100 μM, 10 μM, 1 μM, 100 nM, 10 nM, 1 nM, 100 pM, 10 pM, 200 μl system/well, in duplicated wells; • 4. Incubating for 24 h, collecting the supernatant; • 5. Detecting the level of TNFα in supernatant with ELISA, fitting the inhibition curve and calculating IC50 with Graphpad Prism software.

In test [3] the target is T1, phosphodiesterase 4B subtype (PDE4B) (Homo sapiens, UniProt Q07343).
T1 construct: amino acid 305 terminal; GST (N); made in house; host or cells: Sf9 insect cells (baculovirus)
T1 sequence (Q07343 305-736 limits assumed): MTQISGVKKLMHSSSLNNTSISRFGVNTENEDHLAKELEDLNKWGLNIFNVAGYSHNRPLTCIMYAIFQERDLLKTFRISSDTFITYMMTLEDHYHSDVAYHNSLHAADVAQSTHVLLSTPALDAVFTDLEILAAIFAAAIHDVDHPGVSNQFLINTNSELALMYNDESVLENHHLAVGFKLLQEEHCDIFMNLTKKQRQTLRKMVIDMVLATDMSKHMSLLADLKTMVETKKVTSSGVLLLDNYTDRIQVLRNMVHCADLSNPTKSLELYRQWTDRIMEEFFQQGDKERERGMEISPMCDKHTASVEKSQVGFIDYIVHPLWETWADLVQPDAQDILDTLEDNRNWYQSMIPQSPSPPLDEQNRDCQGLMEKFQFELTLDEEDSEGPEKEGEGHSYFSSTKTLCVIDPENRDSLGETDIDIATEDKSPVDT
Briefly: Inhibitory activity on PDE4B enzyme (fluorescence polarization). It counts as biochemical. As for the experimental part:
This biological experiment based on fluorescence polarization was used to determine AMP/GMP expression, that is, to show enzyme activity by tracking AMP/GMP antibody binding.
Experimental buffer solution: 10 mM Trihydroxymethyl aminomethane-hydrochloric acid buffer solution (Tris-HCl) (pH 7.5), 5 mM MgCl2, 0.01% Polyoxyethylene lauryl ether (Brij 35), 1 mM Dithiothreitol (DTT), and 1% DMSO.
Enzymes: Recombinant humanized PDE4B (Genebank Accession Number NM_002600; amino acid 305 terminal) was expressed with baculovirus in Sf9 insect cells using N-terminal GST tag. MW=78 kDa.
Enzyme substrate: 1 μM cAMP
Detection: Transcreener®AMP2/GMP2 antibody and AMP2/ GMP2 AlexaFluor633 tracing.
• 1. Dissolving the recombinant human PDE4B enzyme and enzyme substrate (1 μM cAMP) in freshly prepared experimental buffer; • 2. Transferring the above PDE4B enzyme buffer solution to reaction wells; • 3. Adding Compound 1 dissolved with 100% DMSO to the reaction well with PDE4B enzyme buffer solution via acoustic technology (echo 550 nanoliter range) and incubating for 10 min at room temperature; • 4. […] The range of fluorescence polarization determination is Ex/Em=620/688.
Data Analysis: The fluorescence polarization signal was converted into nM according to the AMP/GMP standard curve and the control % enzyme activity relative to the DMSO calculated by Excel software. […]
On the technique in general: Fluorescence polarisation rises when a labelled molecule tumbles more slowly, as on binding a larger partner.

Where [4] appears, read: Mus musculus, po, 264 h, 0.3 mg/kg gavage once a day for 11 days, read-out: Inhibition rate of area under the clinical score curve (AUC) relative to vehicle control group.

As to `CCOc1cc([C@@H](CS(C)(=O)=O)N2C(=O)c3cccc(NC(C)=O)c3C2=O)ccc1OC` [Apremilast, reference compound], the “Decrease of average clinical symptom score compared to vehicle control group” value in test [1] (5 mg/kg gavage once a day for 11 days, 37th day, p<0.001) is given as 3.7. For the same compound, in test [1] (5 mg/kg gavage once a day for 11 days, p<0.05 vs vehicle), the “Total pathological score (both hind limbs)” value amounted to 13.90±1.89. Moreover, the inhibition at 5 mg/kg in test [1] (Mus musculus, po, 264 h, 5 mg/kg gavage once a day for 11 days, read-out: Inhibition rate of area under the clinical score curve (AUC) relative to vehicle control group) is 41.3%. For the same compound, the “Average clinical symptom score” value in test [1] (gavage once a day for 11 days, 37th day) is listed as 4.2.

`CCOc1cc([C@@H](CS(C)(=O)=O)n2c(=O)[nH]c3c(C)c(-c4ccccc4F)cnc32)ccc1OC` [Compound 1]: in test [2], the “In vitro activity of inhibiting TNFα production in hPBMC (conclusion)” value is on record as “excellent in vitro activity”. In test [2] (Homo sapiens, PBMC, LPS 1 ng/mL, 24 h, TNFα in supernatant by ELISA), this compound registered an IC50 of 0.56 nM. In test [3], the “In vitro activity of inhibiting PDE4B (conclusion)” value is “excellent in vitro activity”. In addition, the Clinical average score is reported as 3.6 in test [1] (0.3 mg/kg gavage once a day for 11 days, 37th day, p<0.0001 vs vehicle); 4.3 in test [1] (1 mg/kg gavage once a day for 11 days, 37th day, p<0.001 vs vehicle); 3.5 in test [1] (3 mg/kg gavage once a day for 11 days, 37th day, p<0.0001 vs vehicle). The “Arthritis pathology (conclusion)” value in test [1] (1 mg/kg and 3 mg/kg dose groups) was “significant improvement”. The “Total pathological score (both hind limbs)” value in test [1] (1 mg/kg gavage once a day for 11 days, p<0.05 vs vehicle) is 14.00±2.43; in test [1] (3 mg/kg gavage once a day for 11 days, p<0.0001 vs vehicle), 9.20±1.83. For the same compound, the “Therapeutic effect (clinical score and arthritis pathological score) compared with Apremilast” value in test [1] (Compound 1 at 3 mg/kg vs Apremilast at 5 mg/kg) is “better than that of Apremilast at 5 mg/kg”. Further, the inhibition at 0.3 mg/kg in test [1] (setting [4]) is 43.9%. Moreover, the inhibition at 1 mg/kg in test [1] (Mus musculus, po, 264 h, 1 mg/kg gavage once a day for 11 days, read-out: Inhibition rate of area under the clinical score curve (AUC) relative to vehicle control group) was determined as 39.4%. Further, in test [1] (Mus musculus, po, 264 h, 3 mg/kg gavage once a day for 11 days, read-out: Inhibition rate of area under the clinical score curve (AUC) relative to vehicle control group), the inhibition at 3 mg/kg came to 51.7%. In addition, the “Symptoms of the collagen-induced arthritis (conclusion)” value in test [1] (three dose groups of 0.3, 1 and 3 mg/kg) is recorded as “significantly improved”.

As to `C[C@@H]1C[C@H]2[C@@H]3CCC4=CC(=O)C=C[C@]4(C)[C@@]3(F)[C@@H](O)C[C@]2(C)[C@@]1(O)C(=O)CO` [Dexamethasone, reference compound], the Clinical score in test [1] (0.3 mg/kg gavage once a day, from the 30th day until the end of the experiment, p<0.0001 vs vehicle) was determined as 0. Further, the inhibition at 0.3 mg/kg in test [1] (setting [4]) amounted to 96.4%.
